Results reported in US7655665B2, “Nitromethylene derivatives and their use” (East China University of Science and Technology, priority 2004, dated 2010).

Tests used:
[1] = test system: Nilaparvata lugens; experiment: Insecticidal activity against Nilaparvata lugens (planthopper) by spraying; type: in vivo; settings: 500 ppm; spraying 2 ml; counted after 24 hours
Protocol: (§1) Test on the insecticidal activity of Compound Nos. 1-227
Planthopper, which belongs to Homoptera and has a piercing-sucking mouthpart, is a common insect for agricultural plant. Nilaparvata lugens was tested by the way of spraying.
Test method: the test compound was exactly formulated into a solution having a certain concentration and clean water was used as a blank control. Each process was repeated for 3 tumblers (3 times). 2 ml of solution was sprayed uniformly to each tumbler by a mini manual sprayer. 10 Nilaparvata lugens were introduced to every sink 6 hours before spraying. Three series of experiments were conducted. The number of killed Nilaparvata lugens was counted after 24 hours to calculate the mortality.

[2] = test system: Aphis craccivoral; experiment: Insecticidal activity against Aphis craccivoral by immersing (dipping aphids on bean sprout); type: in vivo; settings: 500 ppm; immersing (dipped 5 seconds); counted after 24 hours; 23° C.
Protocol: as §1
Aphis, which belongs to Homoptera and has a piercing-sucking mouthpart, is a common insect for agricultural plant. Aphis craccivoral was tested by the way of immersing.
Test method: exactly weighed various samples were independently added to N,N-dimethylformamide to form a 10 g/L stock solution. The mixture was diluted with 0.2 mL/L aqueous Triton X-100 solution to a concentration of 500 ug/mL. After stably sucking on bean sprout, the adult aphis without wings together with bean sprout was dipped into 500 ug/mL dilution, taken out after 5 seconds, and the excess dilution was sucked out with bibulous paper and the adult aphis without wings was incubated in clean vessel at a constant temperature of 23° C. Each concentration was repeated for 3 times and the control group contained 0.2 mL/L aqueous Triton X-100 solution. The number of killed aphis was counted after 24 hours to calculate the mortality.

Row | Structure (SMILES) | mortality (%) (500 ppm) Nilaparvata lugens [1] | mortality (%) (500 ppm) Aphis [2]
1 | O=[N+]([O-])C1=C2N(Cc3cnc(Cl)s3)CCCN2C(OCC(F)(F)F)CC1 (centres unmarked) [Compound 89] | 100 | 100
2 | CCCOC1CCC([N+](=O)[O-])=C2N(Cc3cnc(Cl)s3)CCCN21 (centres unmarked) [Compound 90] | 51 | 34
3 | CC(C)OC1CCC([N+](=O)[O-])=C2N(Cc3cnc(Cl)s3)CCCN21 (centres unmarked) [Compound 91] | 71 | 69
4 | O=[N+]([O-])C1=C2N(Cc3cnc(Cl)s3)CCCN2C(OC(C(F)(F)F)C(F)(F)F)CC1 (centres unmarked) [Compound 92] | 5 | 6
5 | CCCCOC1CCC([N+](=O)[O-])=C2N(Cc3cnc(Cl)s3)CCCN21 (centres unmarked) [Compound 93] | 8 | 7
6 | CC(C)COC1CCC([N+](=O)[O-])=C2N(Cc3cnc(Cl)s3)CCCN21 (centres unmarked) [Compound 94] | 3 | 8
7 | CCC(C)OC1CCC([N+](=O)[O-])=C2N(Cc3cnc(Cl)s3)CCCN21 (centres unmarked) [Compound 95] | 8 | 4
8 | CC(C)(C)OC1CCC([N+](=O)[O-])=C2N(Cc3cnc(Cl)s3)CCCN21 (centres unmarked) [Compound 96] | 100 | 80
9 | COCCOC1CCC([N+](=O)[O-])=C2N(Cc3cnc(Cl)s3)CCCN21 (centres unmarked) [Compound 97] | 100 | 78
10 | CCOCCOC1CCC([N+](=O)[O-])=C2N(Cc3cnc(Cl)s3)CCCN21 (centres unmarked) [Compound 98] | 7 | 4
11 | O=[N+]([O-])C1=C2N(CC3CCOC3)CCCN2C(O)CC1 (centres unmarked) [Compound 99] | 7 | 6
12 | COC1CCC([N+](=O)[O-])=C2N(CC3CCOC3)CCCN21 (centres unmarked) [Compound 100] | 8 | 3
13 | CCOC1CCC([N+](=O)[O-])=C2N(CC3CCOC3)CCCN21 (centres unmarked) [Compound 101] | 90 | 76
14 | O=[N+]([O-])C1=C2N(CC3CCOC3)CCCN2C(OCCCl)CC1 (centres unmarked) [Compound 102] | 89 | 0
15 | O=[N+]([O-])C1=C2N(CC3CCOC3)CCCN2C(OCC(F)(F)F)CC1 (centres unmarked) [Compound 103] | 100 | 6
16 | CCCOC1CCC([N+](=O)[O-])=C2N(CC3CCOC3)CCCN21 (centres unmarked) [Compound 104] | 24 | 3
17 | CC(C)OC1CCC([N+](=O)[O-])=C2N(CC3CCOC3)CCCN21 (centres unmarked) [Compound 105] | 98 | 10
18 | CCCCOC1CCC([N+](=O)[O-])=C2N(CC3CCOC3)CCCN21 (centres unmarked) [Compound 107] | 0 | 7
19 | CC(C)COC1CCC([N+](=O)[O-])=C2N(CC3CCOC3)CCCN21 (centres unmarked) [Compound 108] | 9 | 1
20 | CCC(C)OC1CCC([N+](=O)[O-])=C2N(CC3CCOC3)CCCN21 (centres unmarked) [Compound 109] | 10 | 2

Row | Structure (SMILES) | mortality (%) (500 ppm) Nilaparvata lugens [1] | mortality (%) (500 ppm) Aphis [2]
21 | CC(C)(C)OC1CCC([N+](=O)[O-])=C2N(CC3CCOC3)CCCN21 (centres unmarked) [Compound 110] | 98 | 67
22 | O=[N+]([O-])C1=C2N(Cc3ccc(Cl)nc3)CCN2C(Oc2ccccc2)CC1 (centres unmarked) [Compound 112] | 75 | 38
23 | CC(=O)OC1CCC([N+](=O)[O-])=C2N(Cc3ccc(Cl)nc3)CCN21 (centres unmarked) [Compound 113] | 77 | 45
24 | CCC(=O)OC1CCC([N+](=O)[O-])=C2N(Cc3ccc(Cl)nc3)CCN21 (centres unmarked) [Compound 114] | 88 | 56
25 | O=C(OC1CCC([N+](=O)[O-])=C2N(Cc3ccc(Cl)nc3)CCN21)C(Cl)(Cl)Cl (centres unmarked) [Compound 115] | 33 | 0
26 | O=C(OC1CCC([N+](=O)[O-])=C2N(Cc3ccc(Cl)nc3)CCN21)C(F)(F)F (centres unmarked) [Compound 116] | 45 | 2
27 | CS(=O)(=O)OC1CCC([N+](=O)[O-])=C2N(Cc3ccc(Cl)nc3)CCN21 (centres unmarked) [Compound 117] | 65 | 19
28 | O=[N+]([O-])C1=C2N(Cc3ccc(Cl)nc3)CCN2C(OS(=O)(=O)C(F)(F)F)CC1 (centres unmarked) [Compound 118] | 100 | 81
29 | O=[N+]([O-])C1=C2N(Cc3ccc(Cl)nc3)CCN2C(OS(=O)(=O)c2ccccc2)CC1 (centres unmarked) [Compound 119] | 23 | 3
30 | O=C(OC1CCC([N+](=O)[O-])=C2N(Cc3ccc(Cl)nc3)CCN21)c1cccnc1 (centres unmarked) [Compound 120] | 5 | 1
31 | O=C(OC1CCC([N+](=O)[O-])=C2N(Cc3ccc(Cl)nc3)CCN21)c1ccccn1 (centres unmarked) [Compound 121] | 8 | 0
32 | O=C(OC1CCC([N+](=O)[O-])=C2N(Cc3ccc(Cl)nc3)CCN21)c1ccccc1 (centres unmarked) [Compound 122] | 23 | 56
33 | O=C(OC1CCC([N+](=O)[O-])=C2N(Cc3ccc(Cl)nc3)CCN21)c1ccc(F)cc1 (centres unmarked) [Compound 123] | 100 | 56
34 | O=C(OC1CCC([N+](=O)[O-])=C2N(Cc3ccc(Cl)nc3)CCN21)c1ccc(Cl)cc1 (centres unmarked) [Compound 124] | 0 | 22
35 | O=C(OC1CCC([N+](=O)[O-])=C2N(Cc3ccc(Cl)nc3)CCN21)c1cc(F)c(Cl)cc1Cl (centres unmarked) [Compound 125] | 92 | 67
36 | O=C(OC1CCC([N+](=O)[O-])=C2N(Cc3ccc(Cl)nc3)CCN21)c1ccc(C(F)(F)F)cc1 (centres unmarked) [Compound 126] | 100 | 93
37 | O=C(OC1CCC([N+](=O)[O-])=C2N(Cc3ccc(Cl)nc3)CCN21)c1cc(F)c(F)cc1F (centres unmarked) [Compound 127] | 78 | 45
38 | O=C(OC1CCC([N+](=O)[O-])=C2N(Cc3ccc(Cl)nc3)CCN21)c1cc(F)c(F)c(F)c1F (centres unmarked) [Compound 128] | 21 | 0
39 | O=C(OC1CCC([N+](=O)[O-])=C2N(Cc3ccc(Cl)nc3)CCN21)c1ccccc1F (centres unmarked) [Compound 129] | 34 | 0
40 | O=C(OC1CCC([N+](=O)[O-])=C2N(Cc3ccc(Cl)nc3)CCN21)c1cc(F)c(F)c([N+](=O)[O-])c1F (centres unmarked) [Compound 130] | 67 | 23
